Molecular target: T1, Pol theta (residues 1819-2590) (Homo sapiens, UniProt O75417)
T1 construct: Pol theta polymerase domain (residues 1819-2590) at a final concentration of 4 nM
T1 sequence (O75417 1819-2590): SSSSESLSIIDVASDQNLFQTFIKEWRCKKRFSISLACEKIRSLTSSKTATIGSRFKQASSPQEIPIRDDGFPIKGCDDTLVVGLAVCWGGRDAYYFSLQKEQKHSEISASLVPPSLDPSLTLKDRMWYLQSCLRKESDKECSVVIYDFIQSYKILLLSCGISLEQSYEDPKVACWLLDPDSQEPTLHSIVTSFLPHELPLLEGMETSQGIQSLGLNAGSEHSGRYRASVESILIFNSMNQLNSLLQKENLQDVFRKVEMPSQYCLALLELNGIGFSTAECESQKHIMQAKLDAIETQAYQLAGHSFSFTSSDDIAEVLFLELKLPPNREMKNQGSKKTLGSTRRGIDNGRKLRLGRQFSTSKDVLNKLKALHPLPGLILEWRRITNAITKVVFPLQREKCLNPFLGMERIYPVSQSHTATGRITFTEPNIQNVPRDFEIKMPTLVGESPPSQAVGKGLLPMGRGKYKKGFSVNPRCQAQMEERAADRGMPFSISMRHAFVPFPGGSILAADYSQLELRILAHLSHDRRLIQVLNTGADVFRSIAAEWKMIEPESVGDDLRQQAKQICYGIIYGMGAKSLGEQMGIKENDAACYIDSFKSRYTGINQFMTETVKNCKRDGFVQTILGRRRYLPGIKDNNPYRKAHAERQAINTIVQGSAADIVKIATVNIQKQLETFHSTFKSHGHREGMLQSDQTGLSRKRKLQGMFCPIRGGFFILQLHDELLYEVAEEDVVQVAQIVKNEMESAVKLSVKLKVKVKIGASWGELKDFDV
Experiment: PPi assay (inhibition of polymerase activity of Pol theta, PPiLite luminescence)
Assay type: biochemical
Settings: Pol theta 2.8 nM; luminescence kinetic mode 90 min
Protocol: The ability of the compounds of Formula (I) or Formula (II) to inhibit polymerase activity of Pol theta was determined using the PPi assay as set forth below.
A mixture of template DNA strand (SEQ ID NO:4: 5′ ATTACTGACCTCATACTTCTGCCCTTCCATGTTCTGTGCCCTCCTTCC 3′) and primer DNA strand (SEQ ID NO:5: 5′ GGA AGG AGG GCA CAG AAC 3′) was annealed in 10 mM Tris-HCl pH 8.0, […] buffer to form the primed DNA substrate. A 10-point dilution series of compounds were used in a 384 well format for the inhibition assay. Pol theta (residues 1819-2590) (2.8 nM) in assay buffer (20 mM Tris-HCl pH 7.8, 50 mM KCl, 10 mM MgCl2, 1 mM DTT, 0.01% BSA, 0.01% Tween-20) was transferred to the test wells (10 uL), except for the low control wells. The plate was then incubated at room temperature for 15 mins. An equal volume (10 μL) of dNTP substrate (40 μM) and primed DNA substrate (800 nM) in assay buffer was added to all the test wells. 20 μL of PPi detection reagent (PPiLite inorganic pyrophosphate assay, Lonzo) was then added to all test wells. The plate was then centrifuged at 1000 rpm for 1 min. The reaction was monitored in a Tecan M1000 Pro plate reader in luminescence kinetic mode for 90 min. The high control (DMSO with enzyme) with high luminescence represents no inhibition of the polymerase reaction while the low control (DMSO with buffer) with low luminescence represents full inhibition of the polymerase activity. Slope of the reaction progress curves were used to calculate the rate of polymerization. The rates were used to determine the percent inhibition using a four-parameter inhibition model to generate IC50, Hill slope, maximum inhibition, and minimum inhibition.

SMILES | IC50 [nM]
C[C@H]1CC[C@@H](C(=O)N(C)c2ccc(F)cc2)N1c1cc(C(F)(F)F)cc(C(F)(F)F)n1 [1.021, (2S,5S)-1-(4,6-bis(trifluoromethyl)pyridin-2-yl)-N-(4-fluorophenyl)-N,5-dimethylpyrrolidine-2-carboxamide] | ≤ 200
C[C@@H]1CC[C@@H](C(=O)N(C)c2ccc(F)cc2)N1c1cc(C(F)(F)F)cc(C(F)(F)F)n1 [1.023, (2S,5R)-1-(4,6-bis(trifluoromethyl)pyridin-2-yl)-N-(4-fluorophenyl)-N,5-dimethylpyrrolidine-2-carboxamide] | 500 to 1000
CN(C(=O)[C@@H]1CCN1c1nc(C(F)(F)F)cc(C(F)(F)F)c1C#N)c1ccc(F)cc1 [1.025, (S)-1-(3-cyano-4,6-bis(trifluoromethyl)pyridin-2-yl)-N-(4-fluorophenyl)-N-methylazetidine-2-carboxamide] | ≤ 200
Fc1ccc(-c2cccnc2[C@@H]2CCCN2c2cc(C(F)(F)F)cc(C(F)(F)F)n2)cc1 [1.026, (S)-2-(2-(3-(4-fluorophenyl)pyridin-2-yl)pyrrolidin-1-yl)-4,6-bis(trifluoromethyl)pyridine] | ≤ 200
Fc1ccc(-c2cccnc2[C@H]2CCCN2c2cc(C(F)(F)F)cc(C(F)(F)F)n2)cc1 [1.027, (R)-2-(2-(3-(4-fluorophenyl)pyridin-2-yl)pyrrolidin-1-yl)-4,6-bis(trifluoromethyl)pyridine] | 1000 to 10000
O=C([C@@H]1CCCN1c1cc(C(F)(F)F)cc(C(F)(F)F)n1)N(c1ccccc1)c1ccccc1 [1.028, (S)-1-(4,6-bis(trifluoromethyl)pyridin-2-yl)-N,N-diphenylpyrrolidine-2-carboxamide] | 1000 to 10000
CN(C(=O)[C@@H]1[C@H](O)CCN1c1cc(C(F)(F)F)cc(C(F)(F)F)n1)c1ccc(F)cc1 [1.029, (2S,3R)-1-(4,6-bis(trifluoromethyl)pyridin-2-yl)-N-(4-fluorophenyl)-3-hydroxy-N-methylpyrrolidine-2-carboxamide] | ≤ 200
O=C([C@@H]1CCCN1c1cc(C(F)(F)F)cc(C(F)(F)F)n1)N(c1ccc(F)cc1)C1COC1 [1.030, (S)-1-(4,6-bis(trifluoromethyl)pyridin-2-yl)-N-(4-fluorophenyl)-N-(oxetan-3-yl)pyrrolidine-2-carboxamide] | ≤ 200

Molecular target: T2, Pol theta polymerase domain (residues 1819-2590) (Homo sapiens, UniProt O75417)
T2 construct: Pol theta polymerase domain (residues 1819-2590) at a final concentration of 4 nM
T2 sequence (O75417 1819-2590): T1 sequence (O75417 1819-2590)
Experiment: Primer extension assay (inhibition of polymerase activity of Pol theta, molecular beacon fluorescence)
Assay type: biochemical
Settings: Pol theta polymerase domain 4 nM; fluorescence change over 30 min
Protocol: The ability of the compounds of Formula (I) or Formula (II) to inhibit polymerase activity of Pol theta was determined using the primer extension assay as set forth below.
A mixture of 20 uL of Pol theta polymerase domain (residues 1819-2590) at a final concentration of 4 nM in assay buffer (20 m M TRIS, pH 7.80, 50 mM KCl, 10 mM MgCl2, 1 mM DTT, 0.01% BSA, 0.01% Tween20) was added to test compounds (11-point dilution series of test compounds) except the low control wells without test compounds. The above enzyme and test compound inhibitor mixture was then incubated at room temperature for 15 min. An equal volume (20 μl) of dNTP substrate mixture (48 μM) and primed molecular beacon DNA (obtained by annealing template SEQ ID NO:2: (5′-CCTTCCTCCCGTGTCTTG-TACCTTCCCGTCA-GGAGGAAGG-3′) with 5′-TAMRA and 3′-BHQ and primer DNA (SEQ ID NO:3; 5′-GACGGGAAGG-3′) in 10 mM Tris-HCl pH 8.0, 100 mM NaCl buffer) (96 nM) in assay buffer was added to all the test wells. The inhibition activity was measured by monitoring the fluorescence change over 30 min at 535 nm upon excitation at 485 nm. The high control (DMSO with enzyme) with high fluorescence intensity represents no inhibition of polymerase reaction while the low control (DMSO with buffer) with low fluorescence intensity represents full inhibition of polymerase activity. Slope of the reaction progress curves were used to calculate the rate of polymerization. The rates were used to determine the percent inhibition using a four-parameter inhibition model to generate IC50, Hill slope and max inhibition.

SMILES | IC50 [nM]
CN(C(=O)C1CCCN1c1cc(C(F)(F)F)cc(C(F)(F)F)n1)c1ccc(F)cc1 (stereo not drawn) [1.001, 1-(4,6-bis(trifluoromethyl)pyridin-2-yl)-N-(4-fluorophenyl)-N-methylpyrrolidine-2-carboxamide] | ≤ 200
CN(C(=O)C1CCCN1c1ccccc1)c1ccccc1 (stereo not drawn) [1.004, N-methyl-N,1-diphenylpyrrolidine-2-carboxamide] | 1000 to 10000
CN(C(=O)C1CCN1c1cc(C(F)(F)F)cc(C(F)(F)F)n1)c1ccc(F)cc1 (stereo not drawn) [1.005, 1-(4,6-bis(trifluoromethyl)pyridin-2-yl)-N-(4-fluorophenyl)-N-methylazetidine-2-carboxamide] | ≤ 200
CN(C(=O)C1CCCCN1c1cc(C(F)(F)F)cc(C(F)(F)F)n1)c1ccc(F)cc1 (stereo not drawn) [1.007, 1-(4,6-bis(trifluoromethyl)pyridin-2-yl)-N-(4-fluorophenyl)-N-methylpiperidine-2-carboxamide] | ≤ 200
Fc1ccc(-c2cccnc2C2CCCN2c2cc(C(F)(F)F)cc(C(F)(F)F)n2)cc1 (stereo not drawn) [1.008, 2-(2-(3-(4-fluorophenyl)pyridin-2-yl)pyrrolidin-1-yl)-4,6-bis(trifluoromethyl)pyridine] | ≤ 200
CN(C(=O)[C@@H]1CCCN1c1cc(C(F)(F)F)cc(C(F)(F)F)n1)c1ccc(Br)cc1 [1.009, (S)-1-(4,6-bis(trifluoromethyl)pyridin-2-yl)-N-(4-bromophenyl)-N-methylpyrrolidine-2-carboxamide] | ≤ 200
CN(C(=O)[C@@H]1CCCN1c1cc(C(F)(F)F)cc(C(F)(F)F)n1)c1ccc2occc2c1 [1.010, (S)-N-(benzofuran-5-yl)-1-(4,6-bis(trifluoromethyl)pyridin-2-yl)-N-methylpyrrolidine-2-carboxamide] | ≤ 200
CN(C(=O)[C@@H]1CCCN1c1cc(C(F)(F)F)cc(C(F)(F)F)n1)c1ccncc1 [1.011, (S)-1-(4,6-bis(trifluoromethyl)pyridin-2-yl)-N-methyl-N-(pyridin-4-yl)pyrrolidine-2-carboxamide] | ≤ 200
O=C([C@@H]1CCCN1c1cc(C(F)(F)F)cc(C(F)(F)F)n1)N(c1ccc(F)cc1)C1CC1 [1.012, (S)-1-(4,6-bis(trifluoromethyl)pyridin-2-yl)-N-cyclopropyl-N-(4-fluorophenyl)pyrrolidine-2-carboxamide] | ≤ 200
CN(C(=O)[C@@H]1C[C@H](O)CN1c1cc(C(F)(F)F)cc(C(F)(F)F)n1)c1ccc(F)cc1 [1.013, (2S,4S)-1-(4,6-bis(trifluoromethyl)pyridin-2-yl)-N-(4-fluorophenyl)-4-hydroxy-N-methylpyrrolidine-2-carboxamide] | ≤ 200
CN(C(=O)[C@@H]1CCCN1c1cc(C(F)(F)F)ccn1)c1ccc(F)cc1 [1.014, (S)-N-(4-fluorophenyl)-N-methyl-1-(4-(trifluoromethyl)pyridin-2-yl)pyrrolidine-2-carboxamide] | ≤ 200
CN(C(=O)[C@@H]1CCCN1c1cccc(C(F)(F)F)n1)c1ccc(F)cc1 [1.015, (S)-N-(4-fluorophenyl)-N-methyl-1-(6-(trifluoromethyl)pyridin-2-yl)pyrrolidine-2-carboxamide] | ≤ 200
CN(C(=O)[C@@H]1C[C@@H](O)CN1c1cc(C(F)(F)F)cc(C(F)(F)F)n1)c1ccc(F)cc1 [1.016, (2S,4R)-1-(4,6-bis(trifluoromethyl)pyridin-2-yl)-N-(4-fluorophenyl)-4-hydroxy-N-methylpyrrolidine-2-carboxamide] | ≤ 200
CN(C(=O)C1CCCN1c1nc(C(F)(F)F)cc(C(F)(F)F)n1)c1ccc(F)cc1 (stereo not drawn) [1.017, 1-(4,6-bis(trifluoromethyl)pyrimidin-2-yl)-N-(4-fluorophenyl)-N-methylpyrrolidine-2-carboxamide] | ≤ 200
CN(C(=O)[C@@H]1CCCN1c1cc(C(F)(F)F)cc(C(F)(F)F)n1)c1cccc(C#N)c1 [1.018, (S)-1-(4,6-bis(trifluoromethyl)pyridin-2-yl)-N-(3-cyanophenyl)-N-methylpyrrolidine-2-carboxamide] | ≤ 200
Cc1cc(C)nc(N2CCC[C@H]2C(=O)N(C)c2ccc(F)cc2)c1 [1.031, (S)-1-(4,6-dimethylpyridin-2-yl)-N-(4-fluorophenyl)-N-methylpyrrolidine-2-carboxamide] | 200 to 500

Source: patent US20230303510A1, “CYCLIZED ACETAMIDO DERIVATIVES AS DNA POLYMERASE THETA INHIBITORS” (Ideaya Biosciences, Inc., priority 2020, published 2023)
